Data reported in patent US20060003993A1, “Benzotriazepnes as gastrin and cholecystokinin receptor ligands” (James Black Foundation Limited, priority 2001, published 2006).

Experiments:
gastrin (CCK2) receptors = target: T1, gastrin (CCK2) receptors (Rattus norvegicus, UniProt P30553); experiment: immature rat stomach assay, gastrin (CCK2) antagonist activity; assay type: cell-based; conditions: pentagastrin dose-response curves, acid secretion
T1 construct: The stomach was excised and flushed with ca. 1 ml of unbuffered physiological saline solution; from tissue; host or cells: isolated lumen-perfused stomach of immature rats (ca. 21 days old)
T1 sequence (P30553 1-452): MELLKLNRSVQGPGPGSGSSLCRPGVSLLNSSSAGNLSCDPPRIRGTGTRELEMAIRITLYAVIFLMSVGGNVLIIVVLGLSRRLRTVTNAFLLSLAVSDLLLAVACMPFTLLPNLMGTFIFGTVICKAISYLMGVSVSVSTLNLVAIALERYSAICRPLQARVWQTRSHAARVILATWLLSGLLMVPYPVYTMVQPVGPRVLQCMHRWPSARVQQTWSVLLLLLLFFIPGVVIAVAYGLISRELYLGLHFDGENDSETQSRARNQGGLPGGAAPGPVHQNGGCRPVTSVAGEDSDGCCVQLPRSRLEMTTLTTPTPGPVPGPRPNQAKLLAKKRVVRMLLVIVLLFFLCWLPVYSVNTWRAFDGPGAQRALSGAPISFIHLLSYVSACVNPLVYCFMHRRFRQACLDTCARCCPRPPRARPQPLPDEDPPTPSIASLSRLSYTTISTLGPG
Procedure: The compounds of the examples were tested for gastrin (CCK2) antagonist activity in an immature rat stomach assay. The procedure was as follows:
The oesophagus of immature rats (33-50 g, ca. 21 days old) was ligated at the level of the cardiac sphincter and the duodenal sphincter was cannulated. The stomach was excised and flushed with ca. 1 ml of unbuffered physiological saline solution. The fundus was punctured and cannulated. A further 4-5 ml of unbuffered solution was flushed through the stomach to ensure the preparation was not leaking. […] The stomach was continuously perfused at a rate of 1 ml min^−1 with unbuffered solution gassed with 100% O2 with the perfusate passing over an internally referenced pH-electrode fixed 12 cm above the stomach.
After 120 min of stabilisation the drugs were added directly to the serosal solution in the organ bath and after a further 60 min cumulative pentagastrin dose-response curves were started.

[1] = target: T2, human gastrin (CCK2) receptors (Homo sapiens, UniProt P32239); experiment: [125I]-BH-CCK-8S competition binding at human CCK2 receptors cloned into NIH3T3 cells; conditions: hCCK2 receptor, NIH3T3 clone 7 membranes, [125I]-BH-CCK-8S 200 pM, 150 min at 21° C.
T2 construct: amplified by PCR (polymerase chain reaction) from the start codon to the stop codon; expressed in transfected cells
T2 sequence (P32239 1-447): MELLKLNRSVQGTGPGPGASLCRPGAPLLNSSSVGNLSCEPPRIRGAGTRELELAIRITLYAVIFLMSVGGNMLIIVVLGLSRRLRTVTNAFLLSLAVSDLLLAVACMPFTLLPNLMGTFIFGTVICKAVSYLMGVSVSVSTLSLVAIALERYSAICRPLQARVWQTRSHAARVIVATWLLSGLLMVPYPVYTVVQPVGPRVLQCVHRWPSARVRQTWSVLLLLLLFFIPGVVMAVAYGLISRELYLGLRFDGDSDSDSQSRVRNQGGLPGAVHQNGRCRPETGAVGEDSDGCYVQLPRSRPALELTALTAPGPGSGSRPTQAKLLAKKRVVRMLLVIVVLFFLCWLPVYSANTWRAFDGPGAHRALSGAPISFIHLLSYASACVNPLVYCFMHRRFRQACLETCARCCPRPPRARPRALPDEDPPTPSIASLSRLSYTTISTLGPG
Excerpt: Step a: Subcloning of IMAGE Clone Encoding the Human CCK2R into a Mammalian Expression Vector
I.M.A.G.E. (Integrated Molecular Analysis of Genomes and their Expression) clone number 3504160 (Lennon et al. Genomics 33, 151-152 (1996)) was purchased from the HGMP (Human Genome Mapping Project, Cambridge). The cDNA encoding the mRNA for the human CCK2R, corresponding to accession number BC000740, was present in vector pOTB7 in host cell DH10B. The cells, initially streaked on to LB-Agar plates containing 20 μg/ml chloramphenicol, were then grown in LB containing 20 μg/ml chloramphenicol with shaking at 37° C. according to standard techniques (Current Protocols in Molecular Biology, Wiley). DNA was prepared using the QIAGEN® EndoFree™ plasmid Maxi kit (Qiagen Ltd.) according to the manufacturer's protocol. The DNA was then amplified by PCR (polymerase chain reaction) from the start codon to the stop codon using primers containing restriction sites, Eco R1 and Xba I respectively, to facilitate uni-directional cloning. […]
The PCR product was purified using the QIAGEN® MinElute™ PCR purification kit, according to the manufacturer's instructions. […] The digested DNA bands of the correct size, analysed by ethidium bromide stained agarose/TBE gels, were excised and purified using QIAGEN@ MinElute™ gel extraction kit, according to the manufacturer's instructions. […]

Compound | pKB rat stomach (gastrin (CCK2) receptors) | pKi ± s.e.mean [1]
CNc1cc(NC(=O)CN2N=C(C3CCCCC3)c3ccccc3N(CC(O)C(C)(C)C)C2=O)cc(C(=O)OC)c1 (stereo not drawn) [Example 78] | 6.49 ± 0.33 | 
Cc1cccc2c1C(C1CCCCC1)=NN(CC(=O)Nc1cccc(C(=O)O)c1)C(=O)N2CC(=O)C(C)(C)C [Example 114] | 7.45 ± 0.43 | 
Cc1cccc(NC(=O)N[C@@H]2N=C(c3ccccc3)c3ccccc3N(CC(=O)c3ccccc3C)C2=O)c1 [YM022] |  | 10.19 ± 0.03
